This is an account of results in patent US7268152B2, “Glucocorticoid mimetics, methods of making them, pharmaceutical compositions, and uses thereof” (Boehringer Ingelheim Pharmaceuticals, Inc., priority 2002, dated 2007).

The test deals with glucocorticoid receptor. Put plainly: One or more of the above assays (GR binding and GR cell assays; not specified which). It counts as cell-based. To be noted: in one or more of the above assays. How it is done: This assay uses fluorescence polarization (FP) to quantitate the ability of test compounds to compete with tetramethyl rhodamine (TAMRA)-labeled dexamethasone for binding to a human glucocorticoid receptor (GR) complex prepared from an insect expression system. The assay buffer was: 10 mM TES, 50 mM KCl, 20 mM Na2MoO4.2H2O, 1.5 mM EDTA, 0.04% w/v CHAPS, 10% v/v glycerol, 1 mM dithiothreitol, pH 7.4. Test compounds were dissolved to 1 mM in neat DMSO and then further diluted to 10×assay concentration in assay buffer supplemented with 10% v/v DMSO. Test compounds were serially diluted at 10×assay concentrations in 10% DMSO-containing buffer in 96-well polypropylene plates. […] Positive controls were reaction mixtures containing no test compound; negative controls (blanks) were reaction mixtures containing 0.7 μM to 2 μM dexamethasone. […] IC50 values were determined by iterative non-linear curve fitting of the FP signal data to a 4-parameter logistic equation.
B. Glucocorticoid Receptor Cell Assays
1. Induction of Aromatase in Fibroblasts (Cell Assay for Transactivation)
Dexamethasone, a synthetic ligand to the glucocorticoid receptor (GR), induces expression of aromatase in human foreskin fibroblast cells. The activity of aromatase is measured by the conversion of testosterone to estradiol in culture media.
On the day of the experiment, the media in the wells is replaced with fresh media. Cells are treated with test compounds to final concentrations of 10^−5 M to 10 ^−8 M, and testosterone to a final concentration of 300 ng/mL. Each well has a total volume of 100 μL. Samples are made in duplicates. Control wells include: (a) wells that receive testosterone only, and (b) wells that receive testosterone plus 2 μM of dexamethasone to provide maximum induction of aromatase. Plates are incubated at 37° C. overnight (15 to 18 hours), and supernatants are harvested at the end of incubation. […] The amount of estradiol is inversely proportional to the ELISA signals in each well. The extent of aromatase induction by test compounds is expressed as a relative percentage to dexamethasone. EC50 values of test compounds are derived by non-linear curve fitting.
2. Inhibition of IL-6 Production in Fibroblasts (Cell Assay for Transrepression)
Human foreskin fibroblast cells produce IL-6 in response to stimulation by pro-inflammatory cytokine IL-1.
On the next day, media in the wells is replaced with fresh media. Cells are treated with IL-1 (rhIL-1α, R&D Systems Cat. No. 200-LA) to a final concentration of 1 ng/mL, and with test compounds to final concentrations of 10 ^−5 M to 10 ^−8 M, in a total volume of 200 μL per well. Samples are done in duplicates. […] Positive control wells receive IL-1 only and represent maximum (or 100%) amount of IL-6 production. Plates are incubated at 37° C. overnight (15 to 18 hours), and supernatants are harvested at the end of incubation. IL-6 levels in the supernatants are determined by the ELISA kits for IL-6 (MedSystems Diagnostics GmbH, Vienna, Austria, Cat. No. BMS213TEN) according to manufacture's instructions. The extent of inhibition of IL-6 by test compounds is expressed in percentage relative to positive controls. IC50 values of test compounds are derived by non-linear curve fitting.
Evaluation of agonist or antagonist activity of compounds binding to the glucocorticoid receptor may be determined by any of the assays.
3. Modulation of Tyrosine Aminotransferase (TAT) Induction in Rat Hepatoma Cells
Testing of compounds for agonist or antagonist activity in induction of tyrosine aminotransferase (TAT) in rat hepatoma cells.
H4-II-E-C3 cells were incubated overnight in 96 well plates (20,000 cells/100 μL/well) in MEM medium containing 10% heat inactivated FBS and 1% nonessential amino acids. On the next day, cells were stimulated with the indicated concentrations of dexamethasone or test compound (dissolved in DMSO, final DMSO concentration 0.2%) for 18 hours. Control cells were treated with 0.2% DMSO.

For the compound `CC(C)(CC(O)(Cc1ccc(C#N)cc1Cl)C(F)(F)F)c1cc(C#N)cc2c1OCC2` (stereo not drawn) [7-[3-(2-Chloro-4-cyanobenzyl)-4,4,4-trifluoro-3-hydroxy-1,1-dimethylbutyl]-2,3-dihydrobenzofuran-5-carbonitrile], the “activity as agonists of the glucocorticoid receptor function” value (“activity” for short) is “activity as agonists”.

As to `CC(C)(CC(O)(Cc1ccc(C#N)cc1Cl)C(F)(F)F)c1ccc(F)cc1` (stereo not drawn) [3-Chloro-4-[4-(4-fluorophenyl)-2-hydroxy-4-methyl-2-trifluoromethylpentyl]benzonitrile], the “activity” value is recorded as “activity as agonists”.

Take `CC(C)(CC(O)(Cc1cc(C(F)(F)F)cc(Cl)c1F)C(F)(F)F)c1cc(Br)cc2c1OCC2` (stereo not drawn) [4-(5-Bromo-2,3-dihydrobenzofuran-7-yl)-2-(3-chloro-2-fluoro-5-trifluoromethylbenzyl)-1,1,1-trifluoro-4-methylpentan-2-ol]: the “activity” value is reported as “activity as agonists”.

Consider `CC(C)(CC(O)(Cc1ccc(C#N)cc1Cl)C(F)(F)F)c1cccc(F)c1` (stereo not drawn) [3-Chloro-4-[4-(3-fluorophenyl)-2-hydroxy-4-methyl-2-trifluoromethylpentyl]benzonitrile], for which the “activity” value is on record as “activity as agonists”.

As to `CC(C)(CC(O)(Cc1ccc(C#N)cc1Cl)C(F)(F)F)c1ccc(F)cc1O` (stereo not drawn) [3-Chloro-4-[4-(4-fluoro-2-hydroxyphenyl)-2-hydroxy-4-methyl-2-trifluoromethylpentyl]benzonitrile], the “activity” value is reported as “activity as agonists”.

On to `N#Cc1ccc(CC(O)(CC2(c3cc(F)ccc3Cl)CCC2)C(F)(F)F)c(Cl)c1` (stereo not drawn) [3-Chloro-4-{2-[1-(2-chloro-5-fluorophenyl)cyclobutylmethyl]-3,3,3-trifluoro-2-hydroxypropyl}benzonitrile], for which the “activity” value was “activity as agonists”.

Consider `Cc1ccccc1C(C)(C)CC(O)(Cc1ccc(C#N)cc1Cl)C(F)(F)F` (stereo not drawn) [3-Chloro-4-(2-hydroxy-4-methyl-4-o-tolyl-2-trifluoromethylpentyl)benzonitrile], for which the “activity” value is on record as “activity as agonists”.

In the case of `COc1ccc(F)cc1C(C)(C)CC(O)(Cc1cc(C)cc(C)c1C#N)C(F)(F)F` (stereo not drawn) [2-[4-(5-Fluoro-2-methoxyphenyl)-2-hydroxy-4-methyl-2-trifluoromethylpentyl]-4,6-dimethylbenzonitrile], the “activity” value was “activity as agonists”.

Consider `COc1ccc(F)cc1C(C)(C)CC(O)(Cc1ccc(Cl)c(Cl)c1)C(F)(F)F` (stereo not drawn) [2-(3,4-Dichlorobenzyl)-1,1,1-trifluoro-4-(5-fluoro-2-methoxyphenyl)-4-methylpentan-2-ol], for which the “activity” value was “activity as agonists”.

Take `Cc1cc(Br)cc(CC(O)(CC(C)(C)c2cc(F)ccc2O)C(F)(F)F)c1F` (stereo not drawn) [2-[3-(5-Bromo-2-fluoro-3-methylbenzyl)-4,4,4-trifluoro-3-hydroxy-1,1-dimethylbutyl]-4-fluorophenol]: the “activity” value was “activity as agonists”.

With `COc1ccc(F)cc1C(C)(C)CC(O)(Cc1ccc(CO)cc1Cl)C(F)(F)F` (stereo not drawn) [2-(2-Chloro-4-hydroxymethylbenzyl)-1,1,1-trifluoro-4-(5-fluoro-2-methoxyphenyl)-4-methylpentan-2-ol], the “activity” value is reported as “activity as agonists”.

Regarding `COc1ccc(F)cc1C(C)(C)CC(O)(Cc1ccc(C=O)cc1Cl)C(F)(F)F` (stereo not drawn) [3-Chloro-4-[4-(5-fluoro-2-methoxyphenyl)-2-hydroxy-4-methyl-2-trifluoromethylpentyl]benzaldehyde], the “activity” value was “activity as agonists”.

In the case of `CC(C)(CC(O)(Cc1ccc(C#N)cc1Cl)C(F)(F)F)c1cccc(C(F)(F)F)c1` (stereo not drawn) [3-Chloro-4-[2-hydroxy-4-methyl-2-trifluoromethyl-4-(3-trifluoromethylphenyl)pentyl]benzonitrile], the “activity” value was “activity as agonists”.

Turning to `Cc1cc2c(c(C(C)(C)CC(O)(Cc3ccc(C#N)cc3Cl)C(F)(F)F)c1)OCC2` (stereo not drawn) [3-Chloro-4-[2-hydroxy-4-methyl-4-(5-methyl-2,3-dihydrobenzofuran-7-yl)-2-trifluoromethylpentyl]benzonitrile], the “activity” value is “activity as agonists”.

`CC(C)(CC(O)(Cc1ccc(C#N)cc1Cl)C(F)(F)F)c1ccccc1` (stereo not drawn) [3-Chloro-4-(2-hydroxy-4-methyl-4-phenyl-2-trifluoromethylpentyl)benzonitrile]: the “activity” value is “activity as agonists”.

For the compound `CC(C)(CC(O)(Cc1ccc(C#N)cc1Cl)C(F)(F)F)c1cc(F)cc2c1OCC2` (stereo not drawn) [3-Chloro-4-[4-(5-fluoro-2,3-dihydrobenzofuran-7-yl)-2-hydroxy-4-methyl-2-trifluoromethylpentyl]benzonitrile], the “activity” value is reported as “activity as agonists”.

In the case of `N#Cc1ccc(CC(O)(CC2(c3cc(F)ccc3O)CC2)C(F)(F)F)c(Cl)c1` (stereo not drawn) [3-Chloro-4-{3,3,3-trifluoro-2-[1-(5-fluoro-2-hydroxyphenyl)cyclopropylmethyl]-2-hydroxypropyl}benzonitrile], the “activity” value is recorded as “activity as agonists”.

`COc1cc(F)ccc1C(C)(C)CC(O)(Cc1ccc(C#N)cc1Cl)C(F)(F)F` (stereo not drawn) [3-Chloro-4-[4-(4-fluoro-2-methoxyphenyl)-2-hydroxy-4-methyl-2-trifluoromethylpentyl]benzonitrile]: the “activity” value is recorded as “activity as agonists”.

For the compound `COc1cc(F)c(Br)cc1C(C)(C)CC(O)(Cc1ccc(C#N)cc1Cl)C(F)(F)F` (stereo not drawn) [4-[4-(5-Bromo-4-fluoro-2-methoxyphenyl)-2-hydroxy-4-methyl-2-trifluoromethylpentyl]-3-chlorobenzonitrile], the “activity” value is recorded as “activity as agonists”.

Take `CC(C)(CC(O)(Cc1cc(C(F)(F)F)cc(Cl)c1F)C(F)(F)F)c1cc([N+](=O)[O-])cc2c1OCC2` (stereo not drawn) [2-(3-Chloro-2-fluoro-5-trifluoromethylbenzyl)-1,1,1-trifluoro-4-methyl-4-(5-nitro-2,3-dihydrobenzofuran-7-yl)pentan-2-ol]: the “activity” value is recorded as “activity as agonists”.

As to `CC(C)(CC(O)(Cc1ccc(C#N)cc1Cl)C(F)(F)F)c1ccc2ccccc2c1` (stereo not drawn) [3-Chloro-4-(2-hydroxy-4-methyl-4-naphthalen-2-yl-2-trifluoromethylpentyl)benzonitrile], the “activity” value is given as “activity as agonists”.

For the compound `COc1ccc(F)cc1C(C)(C)CC(O)(Cc1ccc(C#N)c2ccccc12)C(F)(F)F` (stereo not drawn) [4-[4-(5-Fluoro-2-methoxyphenyl)-2-hydroxy-4-methyl-2-trifluoromethylpentyl]naphthalene-1-carbonitrile], the “activity” value is listed as “activity as agonists”.

Turning to `CC(C)(CC(O)(Cc1ccc(C#N)cc1Cl)C(F)(F)F)c1ccc(C(F)(F)F)cc1` (stereo not drawn) [3-Chloro-4-[2-hydroxy-4-methyl-2-trifluoromethyl-4-(4-trifluoromethylphenyl)pentyl]benzonitrile], the “activity” value is given as “activity as agonists”.

As to `Cc1cc(C)c(C#N)c(CC(O)(CC(C)(C)c2cc(F)ccc2O)C(F)(F)F)c1` (stereo not drawn) [2-[4-(5-Fluoro-2-hydroxyphenyl)-2-hydroxy-4-methyl-2-trifluoromethylpentyl]-4,6-dimethylbenzonitrile], the “activity” value was “activity as agonists”.
